Laboratory results reported in patent US20140194559A1, “Novel Inhibitor Compositions and Methods of Use” (NuFarm UK Limited, priority 2011, published 2014).

Legend:
[1] = Solubility of antipolymerants in ethylbenzene; type: physicochemical; conditions: solvent ethylbenzene
Excerpt: (§1) In order to highlight the increased antipolymerant content that can be achieved, the solubility of three antipolymerants in ethylbenzene, a widely used solvent for supplying antipolymerants for styrene monomer production, is compared with concentration when the antipolymerant is supplied as a SC. The comparative data for the antipolymerants are set out in Table 1.
Thus, it is clear that, for all three active components, the concentration achieved in the SC is far greater than that observed in ethylbenzene. The same concentration could also be obtained when two of the active components were combined in the SC. By contrast, combining more than one of the actives in ethylbenzene, the total concentration of actives was reduced. Thus, for a combination of 2,5-di-tert-butyl-p-benzoquinone and dibenzylhydroxylamine, the total concentration in ethylbenzene was <10 w/w %.

[2] = hazard classification; cited from earlier work
[3] = Maximum concentration of actives in suspension concentrate (SC); type: physicochemical; conditions: for Concentration in SC: maximum concentration of active in suspension concentrate
Protocol: To the liquid carrier (approximately 80% of the required amount) is added the required quantity of the dispersing agent and the mixture is stirred until a fully homogeneous solution is formed. Under high shear conditions, the desired amount of active inhibitor component is added to the dispersant solution and the formulation is stirred until it becomes completely homogeneous. The resulting dispersed active inhibitor is transferred to a bead mill where it is continuously milled until the required particle size distribution is obtained. Desirably, the particle size is less than 10 microns. Under additional stirring, the remaining liquid carrier, optionally a preservative agent and optionally a thickening agent are added to the milled formulation until a homogeneous suspension concentrate is formed. The required quantities of the components of the formulation are in each case determined with reference to the scale of the process which is being conducted.
as §1
(§2) This effect is further illustrated by reference to a further example wherein a stable suspension concentrate of phenothiazine (PTZ), containing 40 percent by weight of the PTZ component, was easily obtained using the above methodology. PTZ is a widely used inhibitor in (meth)acrylic acid and ester processes, but has low solubility in most solvents that are compatible with such processes. In most industrial cases, PTZ is supplied in its solid form and dissolved in the monomer to form a dilute solution for dosing into the monomer purification process. Thus, for example, in laboratory tests, PTZ had the following solubilities: acrylic acid (2.6 w/w %), methacrylic acid (2.4 w/w %), n-butyl acrylate (9.7 w/w %), methyl methacrylate (8.4 w/w %).

[4] = Acrylic acid tube test (inhibition period); conditions: 25 ppm inhibitor, lean air (5% oxygen in nitrogen), 120° C., until first white precipitate
Protocol: In a typical test, a series of tubes containing acrylic acid and inhibitor was sparged with a lean air mixture (5% oxygen in nitrogen). These tubes were then heated at 120° C. until the first signs of polymerisation were detected (by means of the formation of white precipitate), and this was determined as the inhibition period.

[5] = Laboratory solubility tests of PTZ in monomers; type: physicochemical
Excerpt: as §2

[6] = Batch tests: polymer content in refluxing styrene monomer; conditions: for Effect: batch test, styrene, 120° C., inhibitor or retarder
Protocol: The particular ethylenically unsaturated compound used in the tests was a vinyl aromatic monomer, specifically styrene monomer. The use of a vinyl aromatic monomer for this purpose is illustrative and is not intended to exclude other ethylenically unsaturated compounds from the scope of this invention.
Batch tests (the results of which are detailed in Table 2), and continuous flow tests were carried out in order to represent different types of processing conditions which can occur in the industrial processing of ethylenically unsaturated compounds. These tests compare the compositions of the present invention with compositions of the prior art.
The batch test was designed in order to show whether a test composition is an inhibitor or a retarder. The tests were carried out in styrene monomer refluxing under reduced pressure at 120° C. in order to reduce the presence of atmospheric oxygen to such low levels as can be expected in a commercial styrene monomer purification plant.
For the batch tests the vinyl aromatic monomer composition containing the test substances was heated to 120° C. and stirred under reduced pressure so that it refluxed at the test temperature. Samples were taken at intervals of time and tested for polymer content in order to assess the effectiveness of polymerisation control.

SMILES | Solubility in ethylbenzene [1] [w/w %] | Dermal Toxicity [2] | Oral Toxicity [2] | Toxic by Inhalation [2] | Concentration in SC [3] [w/w %] | also measured
CC(C)(C)C1=CC(=O)C(C(C)(C)C)=CC1=O [BQ, 2,5-di-tert-butyl-p-benzoquinone] | 11.9 | No | No | No | 45.0 | 
c1ccc2c(c1)Nc1ccccc1S2 [PTZ, phenothiazine] |  |  |  |  |  | Inhibition Period [4]: 531 min; solubility in acrylic acid ([5]; acrylic acid): 2.6 w/w %; solubility in methacrylic acid ([5]; methacrylic acid): 2.4 w/w %; solubility in methyl methacrylate ([5]; methyl methacrylate): 8.4 w/w %; solubility in n-butyl acrylate ([5]; n-butyl acrylate): 9.7 w/w %; PTZ content of stable suspension concentrate ([3]; stable suspension concentrate): 40 percent by weight
ON(Cc1ccccc1)Cc1ccccc1 [DBHA, N,N-dibenzyl hydroxylamine] | 1.6 | No | No | No | 45.0 | 
CC(C)(C)c1cc(O)c(C(C)(C)C)cc1O [HQ, 2,5-di-tert-butyl hydroquinone] | 6.7 |  |  |  | 45.0 | 
CCC(C)c1cc([N+](=O)[O-])cc([N+](=O)[O-])c1O (stereo not shown) [DNBP, 4,6-Dinitro-2-sec-butyl phenol] |  | Yes |  |  |  | Effect [6]: retarder; Effect ([6]; listed as Control 1): Retarder; Polymer (ppm) @ (time) 180 mins ([6]; styrene refluxing under reduced pressure at 120° C., 180 mins, component doses in ppm as in table): 4000 ppm
